Data on 3 compounds can be found in ChEMBL document CHEMBL3045237, “Synthesis, DNA binding, hemolytic, and anti-cancer assays of curcumin I-based ligands and their ruthenium(III) complexes” (Med Chem Res, 2013).

In data set [1] the test system is MDA-MB-231. Nature of the data set: Growth inhibition of Homo sapiens (human) MDA-MB-231 cells at 0.005 mg/ml after 24 hr by MTS assay. Type of data set: functional. The note with it: MDA-MB-231, 24 h, read-out: GI.
In data set [2] the test system is HepG2. The experiment in a line: Growth inhibition of Homo sapiens (human) HepG2 cells at 0.5 mg/ml after 24 hr by MTS assay. Format: functional. The note with it: HepG2, 24 h, read-out: GI. On the technique in general: Tetrazolium assays rely on reduction of a dye to a coloured formazan, in cell work by metabolically active cells.
Data set [3] concerns HeLa. The experiment in a line: Growth inhibition of Homo sapiens (human) HeLa cells at 0.005 mg/ml after 24 hr by MTS assay. Format: functional. The note with it: read-out: GI.
The test system of data set [4] is MDA-MB-231. Nature of the data set: Growth inhibition of Homo sapiens (human) MDA-MB-231 cells at 0.0005 mg/ml after 24 hr by MTS assay. Format: functional. The note with it: MDA-MB-231, 24 h, read-out: GI.
The test system of data set [5] is HeLa. The experiment in a line: Growth inhibition of Homo sapiens (human) HeLa cells at 0.0005 mg/ml after 24 hr by MTS assay. Type of data set: functional. The note with it: read-out: GI.
In data set [6] the test system is HeLa. The experiment in a line: Growth inhibition of Homo sapiens (human) HeLa cells at 0.05 mg/ml after 24 hr by MTS assay. Format: functional. The note with it: read-out: GI.
For data set [7], the system named is HepG2. Nature of the data set: Growth inhibition of Homo sapiens (human) HepG2 cells at 0.005 mg/ml after 24 hr by MTS assay. Format: functional. The note with it: HepG2, 24 h, read-out: GI.
In data set [8] the test system is HeLa. The experiment in a line: Growth inhibition of Homo sapiens (human) HeLa cells at 0.5 mg/ml after 24 hr by MTS assay. Format: functional. The note with it: read-out: GI.
Data set [9] in a line: Hemolytic activity against Homo sapiens (human) RBC at 20 ug/ml after 1 hr by spectrophotometric analysis relative to control. Type of data set: ADME, cell-based, Erythrocyte. The note with it: red blood cells (RBC), read-out: Activity.
Data set [10] can be described thus: Hemolytic activity against Homo sapiens (human) RBC at 5 ug/ml after 1 hr by spectrophotometric analysis relative to control. Format: ADME, cell-based, Erythrocyte. The note with it: red blood cells (RBC), read-out: Activity.
Data set [11] has as its system MDA-MB-231. Nature of the data set: Growth inhibition of Homo sapiens (human) MDA-MB-231 cells at 0.05 mg/ml after 24 hr by MTS assay. Type of data set: functional. The note with it: MDA-MB-231, 24 h, read-out: GI.
The nature of data set [12]: Hemolytic activity against Homo sapiens (human) RBC at 50 ug/ml after 1 hr by spectrophotometric analysis relative to control. The note with it: red blood cells (RBC), read-out: Activity. Format: cell-based, Erythrocyte.
Data set [13] can be described thus: Hemolytic activity against Homo sapiens (human) RBC at 10 ug/ml after 1 hr by spectrophotometric analysis relative to control. Format: ADME, cell-based, Erythrocyte. The note with it: red blood cells (RBC), read-out: Activity.
Data set [14] relates to HeLa. Nature of the data set: Cytotoxicity against Homo sapiens (human) HeLa cells after 24 hr by MTS assay. Type of data set: functional, cell-based.
The nature of data set [15]: Hemolytic activity against Homo sapiens (human) RBC at 100 ug/ml after 1 hr by spectrophotometric analysis relative to control. Type of data set: ADME, cell-based, Erythrocyte. The note with it: red blood cells (RBC), read-out: Activity.
A further data set concerns HT-29. The experiment in a line: Growth inhibition of Homo sapiens (human) HT-29 cells at 0.5 mg/ml after 24 hr by MTS assay. The note with it: HT-29, 24 h, read-out: GI. Type of data set: functional.
Data set [16] relates to MDA-MB-231. The experiment in a line: Growth inhibition of Homo sapiens (human) MDA-MB-231 cells at 0.5 mg/ml after 24 hr by MTS assay. Type of data set: functional. The note with it: MDA-MB-231, 24 h, read-out: GI.

The structures appear in SMILES notation.

As to `COc1cc(/C=C/C(=N\NC(N)=O)C(=Cc2ccc(O)cc2)C(/C=C/c2ccc(O)c(OC)c2)=N/NC(N)=O)ccc1O`, the inhibition of growth at 5 µg/mL amounted to 12.9% with MDA-MB-231 [1], 33.5% in the data set on HeLa [3] and 0.51% in the data set with HepG2 [7]. In addition, the inhibition of growth at 500 µg/mL in the data set on HepG2 [2] stood at 0.74%; with HeLa [8], 13.8%. The inhibition of growth at 0.5 µg/mL in the data set on MDA-MB-231 [4] was 21.7%; in the data set with HeLa [5] it was 30.8%. The inhibition of growth at 50 µg/mL with HeLa [6] amounted to 35%; with MDA-MB-231 [11], 7.64%. Also, the hemolysis at 1 h, 20 ug/ml in data set [9] is 12%. Besides, in [10], the hemolysis at 1 h, 5 ug/ml amounted to 8%. Moreover, the hemolysis at 1 h, 50 ug/ml in [12] stood at 18%. In addition, the hemolysis at 1 h, 10 ug/ml in data set [13] was 10%. Further, in the data set with HeLa [14], the IC50 is 20.4 nM. In addition, in data set [15], the hemolysis at 1 h, 100 ug/ml amounted to 21%.
Turning to `COc1cc(/C=C/C(=N\NC(N)=O)C(=Cc2cc(OC)c(O)c(OC)c2)C(/C=C/c2ccc(O)c(OC)c2)=N/NC(N)=O)ccc1O`, the inhibition of growth at 500 µg/mL with HepG2 [2] stood at 48.1%; in the data set with HT-29 it was 46.5%; in the data set with HeLa [8], 53.1%; in the data set with MDA-MB-231 [16], 33.6%. For the same compound, the inhibition of growth at 5 µg/mL with HeLa [3] is 15.8%. The inhibition of growth at 0.5 µg/mL in the data set with MDA-MB-231 [4] was determined as 8.79%; with HeLa [5], 40.1%. The inhibition of growth at 50 µg/mL in the data set with HeLa [6] worked out at 28.1%. Further, in [9], the hemolysis at 1 h, 20 ug/ml worked out at 3.9%. Besides, the hemolysis at 1 h, 5 ug/ml in data set [10] amounted to 2%. Further, in data set [12], the hemolysis at 1 h, 50 ug/ml was 9%. The hemolysis at 1 h, 10 ug/ml in [13] was 4%. Besides, in data set [15], the hemolysis at 1 h, 100 ug/ml amounted to 15%.
Take `N#Cc1ccc(C(c2ccc(C#N)cc2)n2cncn2)cc1` [LETROZOLE]: the hemolysis at 1 h, 20 ug/ml in data set [9] is 60%. Also, in [10], the hemolysis at 1 h, 5 ug/ml stood at 22%. Further, in data set [12], the hemolysis at 1 h, 50 ug/ml was 80%. In addition, in [13], the hemolysis at 1 h, 10 ug/ml was 32%. For the same compound, the hemolysis at 1 h, 100 ug/ml in data set [15] came out at 98%.

Broadly, the IC50 is the concentration that gives 50% inhibition. The low end stands for higher potency, the high end for lower potency.
